Test results reported in patent US7741294B1, “Non-standard nucleobases implementing the isocytidine and isoguanosine hydrogen bonding patterns” (priority 2005, dated 2010).
Where two headings read alike, the source gives them in different places.

Key:
[1] = keto:enol tautomeric equilibrium from UV spectra in dioxane:water mixtures, extrapolated to pure water; type: physicochemical; conditions: log fraction of enol vs ET(30), extrapolated to ET(30) of pure water (63.1)
Description: The procedure of Voegel et al. [Voegel, J. J., von Krosigk, U., Benner, S. A. (1993) J. Org. Chem., 58, 7542-7547.] was then used to estimate a value of the keto:enol tautomers in pure water for dC7 isoG. This procedure exploits the fact that in nonpolar solvents, the UV spectra for both disoG and C7 isoG shift from their form in pure water (which resembles the N-methylated derivatives) to a form that resembles the UV spectra of the O-methylated derivatives. This is interpreted as evidence that the tautomeric equilibrium shifts from one favoring the keto tautomer in pure water to one favoring the enol tautomer in pure dioxane.
To obtain quantitative data, the ratio of the extinction coefficients at two wavelengths (λ=296 and 255 nm for disoG and λ=305 and 254 nm for dC7 isoG), chosen to maximize the difference between the keto and enol forms, was chosen as a metric for the tautomeric equilibrium constant in dioxane:water mixtures in varying proportions. This was plotted against the Dimroth ET(30) value, which provides a measure of the local dielectric constant [Kosower, E. M. (1958) J. Am. Chem. Soc., 80, 3253-3260] [Dimroth, v. K., Reichardt, C., Siepmann, T., Bohlmann, F. (1963) Liebigs Ann. Chem., 661, 1-37.] [Reichardt, C., Harbusch-Goernert, E. (1983) Liebigs Ann. Chem., 721-743] [Gordon, A., Katritzky, A. R. (1968) Tetrahedron Lett., 23, 2767-2770.] […]

[2] = pKa by spectrophotometric titration; type: physicochemical; conditions: pH 2.8 to 13.7, 240-350 nm
Description: The pKa of the nucleoside analog was determined by spectrophotometric titration (pH 2.8 to 13.7) [Kazimierczuk, Z., Shugar, D. (1974) Acta Biochim. Pol., 21, 455-463.1 at 240-350 nm to give values for pK1 and pK2 as 4.3 (±0.1) and 9.9 (±0.2), respectively.

[3] = comparison value for the natural nucleoside; cited from earlier work

| Structure (SMILES) | KTAUT (=[keto]/[enol]) [1] | pK1 [2] | pK2 [2] | KTAUT (=[keto]/[enol]) [3] |
| --- | --- | --- | --- | --- |
| Nc1[nH]c(=O)nc2c1ccn2[C@H]1C[C@H](O)[C@@H](CO)O1 [dC7 isoG, 2′-deoxy-7-deaza-isoguanosine] | ≈ 10^3 | 4.3 (±0.1) | 9.9 (±0.2) |  |
| Nc1nc2c(ncn2[C@@H]2O[C@H](CO)[C@@H](O)[C@H]2O)c(=O)[nH]1 [guanosine] |  |  |  | 10^4-10^5 |
